1 molecule from publication PMC11648230, “Structure–function analysis of tRNA t^6A-catalysis, assembly, and thermostability of Aquifex aeolicus TsaD2B2 tetramer in complex with TsaE” (The Journal of Biological Chemistry, 2024) can be followed below.

The target of the experiment is T1, A. aeolicus TsaD2B2 (TsaD-TsaB) (Aquifex aeolicus, UniProt O66986).
T1 construct: recombinant from E. coli; co-expressed (pET21a-BC10_DZop), C-terminal 6His on TsaB; tetramer; Cys10 of TsaD oxidized (CSO10) in crystals; with tRNA threonylcarbamoyladenosine biosynthesis protein TsaB
T1 sequence (O66494 entry or part of it): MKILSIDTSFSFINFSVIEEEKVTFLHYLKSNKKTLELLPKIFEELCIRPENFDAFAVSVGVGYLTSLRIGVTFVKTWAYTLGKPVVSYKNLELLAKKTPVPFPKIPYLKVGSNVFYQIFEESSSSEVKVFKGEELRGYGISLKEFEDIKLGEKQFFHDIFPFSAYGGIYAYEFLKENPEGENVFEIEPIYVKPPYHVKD
T1 sequence (O66986 whole entry): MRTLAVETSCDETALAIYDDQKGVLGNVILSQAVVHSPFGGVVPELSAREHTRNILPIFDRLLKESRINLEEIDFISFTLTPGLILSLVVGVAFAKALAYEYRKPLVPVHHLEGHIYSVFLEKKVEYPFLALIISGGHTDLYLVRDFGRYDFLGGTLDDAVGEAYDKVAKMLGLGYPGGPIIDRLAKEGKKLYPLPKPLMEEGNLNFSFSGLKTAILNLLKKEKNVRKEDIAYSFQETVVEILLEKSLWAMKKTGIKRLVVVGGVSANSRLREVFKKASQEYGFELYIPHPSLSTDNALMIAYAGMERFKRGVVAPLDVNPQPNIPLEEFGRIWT
The experiment can be described thus: LC-MS of tRNA t6A formation. In kind it is biochemical. The following applies: isolated TC-AMP 30 uM, EDTA-dialyzed TsaD2B2 plus MgCl2, FeCl2 or ZnCl2 100 uM, 60 uM tRNA-Lys(UUU), no TsaE.

With `C[C@@H](O)[C@H](NC(=O)OP(=O)(O)OC[C@H]1O[C@@H](n2cnc3c(N)ncnc32)[C@H](O)[C@@H]1O)C(=O)O` [TC-AMP], the “LC-MS of tRNA t6A formation” value is “we only used EDTA-dialyzed TsaD2B2, HPLC-purified TC-AMP, and SEC-purified IVT tRNA^LysUUU”.
